SMILES strings stand for the structures. Marks after values point to notes of the source that are not given here.

For assay [1], the system named is male Japanese white rabbits receiving a high-cholesterol diet. Nature of the assay: Atherogenic index in rabbits receiving a high-cholesterol diet. The assay is classed as in vivo, rabbit. Conditions: control group = 100%, in 0.2% cholesterol diet for 7 days: Compound I 0.5%. On the procedure:
Prior to commencement of the study, male Japanese white rabbits (KITAYAMA LABES Co., Ltd.) received a normal diet (RC-4, manufactured by Oriental Bio-Service Inc.) (Time Period 1) and water ad libitum. For preliminary feeding, male Japanese white rabbits were provided with a high cholesterol diet comprising 100 g/day per rabbit of RC-4 containing 0.2% cholesterol (manufactured by Oriental Bio-Service Inc.) for 4 weeks (Time Period 2). […] For 7 days (Time Period 3), each group was administered a high cholesterol diet comprising 100 g/day per rabbit of RC-4 containing 0.2% cholesterol and one of the following: • (1) Control (no additional components) • (2) Compound I (0.5%) • (3) Simvastatin (extracted and purified from LipovasTM Tablets-5, Banyu Pharmaceutical Co.) (0.075%) • (4) Atorvastatin calcium trihydrate (extracted and purified from LipitorTM Tablets-10, Pfizer Inc.) (0.075%) • (5) Rosuvastatin calcium (extracted and purified from CrestorTM Tablets, Astra Zeneca) (0.025%) • (6) Compound I (0.5%)+simvastatin (0.075%) • (7) Compound I (0.5%)+atorvastatin calcium trihydrate (0.075%) • (8) Compound I (0.5%)+rosuvastatin calcium (0.025%) […] Atherogenic index was calculated as follows: [(total cholesterol content-HDL cholesterol content)/HDL cholesterol content]. […] A similar experiment was conducted to evaluate the effect of the administration of Compound I and pravastatin sodium ([…] Ltd.) on 12-week old male Japanese white rabbits receiving a high-cholesterol diet.

The target of a further assay is T1, CETP (Homo sapiens, UniProt P11597).
T1 construct: from tissue; host or cells: blood (plasma) samples of hyperlipidemic patients
T1 sequence (P11597 18-493): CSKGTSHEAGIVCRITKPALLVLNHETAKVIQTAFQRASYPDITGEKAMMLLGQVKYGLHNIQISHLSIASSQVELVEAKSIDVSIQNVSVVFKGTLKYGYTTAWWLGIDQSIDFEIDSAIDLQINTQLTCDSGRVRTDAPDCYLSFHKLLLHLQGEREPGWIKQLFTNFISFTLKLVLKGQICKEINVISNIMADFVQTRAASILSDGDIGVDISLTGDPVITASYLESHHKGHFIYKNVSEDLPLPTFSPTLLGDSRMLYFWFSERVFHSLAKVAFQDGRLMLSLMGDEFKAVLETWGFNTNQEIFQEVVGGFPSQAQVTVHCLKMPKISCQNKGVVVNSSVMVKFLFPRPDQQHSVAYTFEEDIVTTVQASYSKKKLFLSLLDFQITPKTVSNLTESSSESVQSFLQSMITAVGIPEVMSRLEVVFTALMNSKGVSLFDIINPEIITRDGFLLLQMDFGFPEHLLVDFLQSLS
Nature of the assay: Clinical study: Compound I added to pravastatin sodium therapy, CETP activity in blood samples. The assay is classed as in vivo. Conditions: for Mean percent change of CETP activity from levels before administration of Compound I: Visit 5 or 6 vs average of Visits 3 and 4, per protocol; for Decrease in CETP activity relative to levels achieved by pravastatin sodium alone: patients receiving pravastatin sodium therapy. How it is done:
CETP activity is measured essentially as described in Tollefson et al., Methods Enzymol., 129, 797-816 (1986), and Kato et al., J. Biol. Chem., 264, 4082-4087 (1989). Preferably, the CETP activity at 2 weeks (or 4 weeks, 8 weeks, 12 weeks, or six months) post-treatment initiation is decreased by about 5% or more relative to CETP activity pretreatment (e.g., about 7.5% or more, about 10% or more, about 15% or more, about 20% or more, about 25% or more, about 30% or more, about 35% or more, about 40% or more, about 45% or more, about 50% or more, about 55% or more, about 60% or more, or about 65% or more).
(§1) This example describes a multi-center, randomized, double-blind, placebo-controlled, parallel group study designed to evaluate the therapeutic effect of the combination of S-[2-([[1-(2-ethylbutyl)cyclohexyl]carbonyl]amino)phenyl]2-methylpropanethioate (Compound I) and pravastatin sodium in patients with hyperlipidemia.
(§2) The total study duration was 16 weeks, which consisted of three periods. During Period 1, the first 8 weeks of the study, 40 mg of pravastatin sodium was taken once daily at bedtime by all enrolled patients. Patients were then randomized to receive placebo or 300 mg or 600 mg of Compound I once daily following breakfast for Period 2, the next 4-week period, in addition to the continued pravastatin sodium treatment. During Period 3, the last 4 weeks of the study, pravastatin sodium was administered alone.
Blood samples were taken at Visit 1 (−10 weeks relative to commencement of treatment with Compound I or placebo) to determine eligibility, and at Visit 2 (−8 weeks; commencement of treatment with pravastatin sodium), Visit 3 (−2 weeks), Visit 4 (commencement of treatment with Compound I or placebo), Visit 5 (+2 weeks after commencement of treatment with Compound I or placebo), Visit 6 (+4 weeks; end of treatment with Compound I or placebo), and Visit 7 (+8 weeks; end of treatment with pravastatin sodium). Each blood sample was tested for levels of lipid parameters (e.g., total cholesterol, triglycerides, HDL-C, LDL-C), CETP activity and mass, the plasma concentration of Compound I (trough level), as well as laboratory safety parameters (e.g., urinalysis, biochemistry, and hematology). […]
Table 2 describes the percent change in HDL-C, LDL-C, TC/HDL-C ratio, LDL-C/HDL-C ratio, and CETP activity from the values of patients receiving pravastatin sodium therapy (average of Visit 3 and 4 values) to the values following administration of Compound I or placebo and pravastatin sodium (Visit 5 or 6). P values were determined by comparing the groups administered Compound I to the placebo group using an ANOVA model with percent change as the dependent variable and treatment and center as the fixed effects. […]

In assay [2] the test system is patients with type II hyperlipidemia. Put plainly: Clinical study: Compound I added to pravastatin sodium therapy, lipid parameters. It is filed as in vivo, human. Conditions: for Mean percent change of HDL-C from levels before administration of Compound I / Mean percent change of LDL-C from levels before administration of Compound I / Mean percent change of LDL-C/HDL-C ratio from levels before administration of Compound I / Mean percent change of TC/HDL-C ratio from levels before administration of Compound I: Visit 5 or 6 vs average of Visits 3 and 4, per protocol.
Text: as §1
Approximately 200 patients with type II hyperlipidemia were enrolled in the study to ensure that about 150 patients (about 50 patients per treatment group) completed the study. The patients met the following criteria: • (i) LDL-C>4.0 mmol/L (160 mg/dL), • (ii) HDL-C<1.6 mmol/L (60 mg/dL), • (iii) triglycerides<4.5 mmol/L (400 mg/dL), and • (iv) age 18-65 years.
as §2
Each pravastatin sodium tablet comprised 40 mg of pravastatin sodium that was provided as a branded commercial product (Selektine™, Bristol-Myers Squibb B.V.). Each Compound I tablet contained 300 mg of Compound I and was supplied as a white oval tablet that is identical in appearance to the placebo tablet. The uncoated white tablets comprising Compound I were prepared using standard tableting procedures. The tablets comprised 300 mg of Compound I, 18 mg of hydroxypropylmethyl cellulose 2910 as a binder, 18 mg of talc and 1.2 mg of magnesium stearate as lubricants, and 119.8 mg of crospovidone and 90 mg of low-substituted hydroxypropyl cellulose as disintegrants.
All patients received 2 uncoated white tablets, such that each patient received either (a) one 300 mg Compound I tablet and one placebo tablet, (b) two 300 mg Compound I tablets, or (c) two placebo tablets during Period 2.
Blood samples were taken at Visit 1 (−10 weeks relative to commencement of treatment with Compound I or placebo) to determine eligibility, and at Visit 2 (−8 weeks; commencement of treatment with pravastatin sodium), Visit 3 (−2 weeks), Visit 4 (commencement of treatment with Compound I or placebo), Visit 5 (+2 weeks after commencement of treatment with Compound I or placebo), Visit 6 (+4 weeks; end of treatment with Compound I or placebo), and Visit 7 (+8 weeks; end of treatment with pravastatin sodium). Each blood sample was tested for levels of lipid parameters (e.g., total cholesterol, triglycerides, HDL-C, LDL-C), CETP activity and mass, the plasma concentration of Compound I (trough level), as well as laboratory safety parameters (e.g., urinalysis, biochemistry, and hematology).
Efficacy analyses included both descriptive summary and statistical modeling, such as analysis of variance (ANOVA) or analysis of covariance (ANCOVA). The descriptive summary included frequencies and percentages for categorical variables and statistics such as the number of available observations, mean, median, standard deviation, minimum, and maximum for all variables.
To determine the effect of the administration of Compound I on a patient receiving HMG CoA reductase inhibitor therapy, the mean values of HDL-C, LDL-C, TC/HDL-C ratio, LDL-C/HDL-C ratio, and CETP activity before administration of Compound I (average of values at Visits 3 and 4) and after the administration of Compound I (Visit 5 or 6) were compared. An ANOVA model containing treatment and center effects was used. […]

The mark [3] stands for this setting: Table 3 experiment, simvastatin 0.075%, atorvastatin calcium trihydrate 0.075%, rosuvastatin calcium 0.025%, blood 8 hours after feeding on Day 7.
Setting [4] is: Table 4 experiment, pravastatin sodium 0.075%.
[5] abbreviates: 300 mg Compound I once daily + 40 mg pravastatin sodium, n = 45.
[6] abbreviates: 600 mg Compound I once daily + 40 mg pravastatin sodium, n = 42.
Where [7] appears, read: 300 mg treatment group, patients receiving pravastatin sodium therapy.
The mark [8] stands for this setting: 600 mg treatment group, patients receiving pravastatin sodium therapy.

For `CC(C)c1c(C(=O)Nc2ccccc2)c(-c2ccccc2)c(-c2ccc(F)cc2)n1CC[C@@H](O)C[C@@H](O)CC(=O)O` [Atorvastatin calcium trihydrate], the “Atherogenic Index (%)” value in assay [1] (setting [3]) came to 49%.
Consider `CCC(CC)CC1(C(=O)Nc2ccccc2SC(=O)C(C)C)CCCCC1` [Compound I, S-[2-([[1-(2-ethylbutyl)cyclohexyl]carbonyl]amino)phenyl]2-methylpropanethioate], for which the “Atherogenic Index (%)” value in assay [1] (setting [3]) came to 54%. In addition, the “Atherogenic Index (%)” value in assay [1] (setting [4]) is 60%. The “Mean percent change of CETP activity from levels before administration of Compound I” value on CETP (setting [5]) was −18.10* %. At CETP (300 mg treatment group), the “Decrease in CETP activity relative to levels achieved by pravastatin sodium alone” value was “about 18%”. In addition, the “Mean percent change of CETP activity from levels before administration of Compound I” value at CETP (setting [6]) is −31.62* %. Further, the “Decrease in CETP activity relative to levels achieved by pravastatin sodium alone” value on CETP (600 mg treatment group) was “about 32%”. Moreover, in assay [2] (setting [5]), the “Mean percent change of HDL-C from levels before administration of Compound I” value is listed as 12.96* %, the “Mean percent change of LDL-C from levels before administration of Compound I” value is 1.57%, the “Mean percent change of LDL-C/HDL-C ratio from levels before administration of Compound I” value is on record as −10.31^† % and the “Mean percent change of TC/HDL-C ratio from levels before administration of Compound I” value is reported as −8.09^† %. Moreover, in assay [2] (setting [7]), the “Decrease in LDL-C/HDL-C ratio relative to levels achieved by pravastatin sodium alone” value is recorded as “about 10%”, the “Decrease in TC/HDL-C ratio relative to levels achieved by pravastatin sodium alone” value is reported as “about 8%” and the “Increase in HDL-C levels relative to levels achieved by pravastatin sodium alone” value is reported as “about 13%”. Moreover, in assay [2] (setting [6]), the “Mean percent change of HDL-C from levels before administration of Compound I” value is 28.43* %, the “Mean percent change of LDL-C from levels before administration of Compound I” value is −7.91^‡ %, the “Mean percent change of LDL-C/HDL-C ratio from levels before administration of Compound I” value was −26.03* % and the “Mean percent change of TC/HDL-C ratio from levels before administration of Compound I” value was −18.72* %. In assay [2] (setting [8]), the “Decrease in LDL-C levels relative to level achieved by pravastatin sodium alone” value is “about 8%”, the “Decrease in LDL-C/HDL-C ratio relative to levels achieved by pravastatin sodium alone” value is listed as “about 26%”, the “Decrease in TC/HDL-C ratio relative to levels achieved by pravastatin sodium alone” value is on record as “about 19%” and the “Increase in HDL-C levels relative to levels achieved by pravastatin sodium alone” value is on record as “about 28%”.
As for `CC[C@H](C)C(=O)O[C@H]1C[C@H](O)C=C2C=C[C@H](C)[C@H](CC[C@@H](O)C[C@@H](O)CC(=O)O)[C@H]21` [Pravastatin sodium], in assay [1] (setting [4]), the “Atherogenic Index (%)” value is given as 40%.
Consider `CC(C)c1nc(N(C)S(C)(=O)=O)nc(-c2ccc(F)cc2)c1/C=C/[C@@H](O)C[C@@H](O)CC(=O)[O-].CC(C)c1nc(N(C)S(C)(=O)=O)nc(-c2ccc(F)cc2)c1/C=C/[C@@H](O)C[C@@H](O)CC(=O)[O-].[Ca+2]` [Rosuvastatin calcium], for which the “Atherogenic Index (%)” value in assay [1] (setting [3]) was 81%.
With `CCC(C)(C)C(=O)O[C@H]1C[C@@H](C)C=C2C=C[C@H](C)[C@H](CC[C@@H]3C[C@@H](O)CC(=O)O3)[C@H]21` [Simvastatin], the “Atherogenic Index (%)” value in assay [1] (setting [3]) turned out to be 51%.
